Results on 3 compounds are retold here after US20110207166A1, “Human bone marrow microenvironments and uses thereof” (priority 2009, published 2011).

“Also recorded” adds a separate entry of the source.

One test concerns the target CXCR4 (Homo sapiens, UniProt P61073). As to conditions: AML; reference [42]; cited from earlier work.
A further test relates to MSC niche. Description: In vitro mesenchymal stem cell niche (cobblestone area) formation, phase contrast imaging. It is filed as cell-based, human. As to conditions: SDF-1/CXCL12 10 ng/ml, AMD3100 10 μM. The protocol: Fresh human BM samples were obtained from orthopedic surgery after informed consent (Tissue Donor Program of the Feinstein Institute). The buffy coat containing the mononucleated cells (MNC) was isolated by Ficoll-density gradient separation (Stem Cell Technology, Vancouver). MNC were plated at low density in 6-well plates in Alpha-Mem (Lonza), 20% heat-inactivated fetal bovine serum (Hyclone), 5 mM L-Glutamine and 100 Units/ml Peni/Strep (Stem Cell Technologies) for overnight adherence. After 24-48 hours, the non-adherent cell fraction was discharged by rigorous pipetting. At day 5, single-cell derived mesenchymal colonies were processed for immunohistochemistry (Vectastain ABC kit, Vector Laboratories, Burlingame, Calif.). MSC were stained for CD90/Thy-1 (Mouse anti-human mAb, Clone 5E10, BD Pharmingen), CD105 (Mouse anti-human mAb, clone 266, BD Pharmingen), CD146 (Mouse monoclonal [P1H12] Abcam). Cells were also labeled for flow cytometry with CD34-APC (Miltenyi Biotec), CD105-FITC (R&D), CD45-FITC, CD90-PECy5, CD146-PE and CXCR4-PE (BD Pharmingen) including matching isotype controls.
Polyurethane scaffold test discs (10×1.5 mm—Biomerix) were placed inside a cloning cylinder (Millipore Corporation, MA), one cylinder in each well of a 24-well plate (Falcon, BD). […]

The subject of test [1] is AML cells in MSC-coated scaffolds. The test is described as follows: In vivo mesenchymal leukemic niche in MSC-coated scaffolds implanted subcutaneously in NOD/SCID mice, CD45 immunohistochemistry. The settings on record: 4 weeks; in situ injection twice per week; SDF-1/CXCL12 10 ng/ml; AMD3100 10 μM; human CD45 stain. As for the experimental part: Polyurethane scaffolds (10×1.5 mm—Biomerix), coated in vitro with human BM-derived MSC (day 5-7), were implanted in a subcutaneous pocket on the dorsum of non-irradiated NOD/SCID mice (Jackson laboratory) according to an approved IACUC animal protocol. Empty scaffolds (without MSC seeding) were used as negative controls. CD34+ HSC (1×10^5—Stem Cell Technology, Vancouver) or primary AML cells (1×10^7—cryopreserved and thawed) were injected either in situ or retro-orbital in the mice and analyzed for engraftment. The mice were treated twice per week with in situ injections of SDF-1/CXCL12 (10 ng/ml), AMD3100 (10 μM) or PBS (control). At week 1, week 4 and week 8, mice were sacrificed and the scaffolds, femurs and spleens were processed and evaluated for cell survival in the mesenchymal niche by immunohistochemistry.
Harvested scaffolds were fixed in formalin solution 10%, neutral buffered (HistoPak-StatLab Medical Products-TX) and paraffin embedded and cut on slides. […]
Each experiment was performed in duplicate, with two mice per experiment in each treatment arm and one mouse as a negative control. Multiple slides per scaffold were analyzed for imaging by immunohistochemistry and light microscopy. […]

CXCR4, sequence (P61073 whole entry): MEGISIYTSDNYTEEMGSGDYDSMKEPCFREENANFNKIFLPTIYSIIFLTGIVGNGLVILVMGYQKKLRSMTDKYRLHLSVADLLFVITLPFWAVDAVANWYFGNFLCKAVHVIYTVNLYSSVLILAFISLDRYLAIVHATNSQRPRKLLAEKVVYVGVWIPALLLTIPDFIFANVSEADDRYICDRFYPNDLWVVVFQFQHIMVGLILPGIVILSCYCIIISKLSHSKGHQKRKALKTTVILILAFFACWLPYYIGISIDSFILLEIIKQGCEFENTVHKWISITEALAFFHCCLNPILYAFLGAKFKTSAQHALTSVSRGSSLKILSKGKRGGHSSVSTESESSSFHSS

Regarding `c1ccc(CNCc2ccc(CN3CCCNCCNCCCNCC3)cc2)nc1` [AMD3465], at CXCR4, the “effect on chemoprotective effects of the stromal cell-leukemia interaction” value was “prevent the chemoprotective effects of the stromal cell-leukemia interaction”.

In the case of `c1cc(CN2CCCNCCNCCCNCC2)ccc1CN1CCCNCCNCCCNCC1` [AMD3100], in the test on MSC niche, the “cobblestone area formation / migration of hematopoietic progenitors underneath the MSC” value was “MSC remain empty and hematopoietic progenitors do not migrate underneath the MSC; also recorded: the cytoplasm remained empty”. For the same compound, the “MSC stromal layer and adherence of AML cells in MSC-coated scaffold” value in test [1] is “the stromal lining is thin and disrupted at several points, leaving AML cells free floating in proximity; also recorded: interact with AML homing by stem cell niche disruption at the level of the stromal layer; also recorded: thin stromal lining that was disrupted at several points, leaving AML cells free floating in proximity; also recorded: the MSC stroma became ruffled and non-adherent and AML remained only loosely attached”.

Regarding “SDF-1/CXCL12: chemokine stromal-cell derived factor, ligand of CXCR4 (R&D Systems)”, in the test with MSC niche, the “cobblestone area formation / migration of hematopoietic progenitors underneath the MSC” value is recorded as “cobblestone area formation”. Also, in test [1], the “MSC stromal layer and adherence of AML cells in MSC-coated scaffold” value is on record as “thick proliferation of the MSC stromal layer with multiple adherent AML cells present; also recorded: upregulates adhesion of AML cells to the stroma; also recorded: induces hyperproliferation of the mesenchymal stroma compartment”.
